Here are results for eight molecules from PubChem BioAssay (NCI).

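Assay format: 96-well plates, 48-hour exposure. At the TGI there is no net growth.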

Some test systems named below: MOLT-4 leukemia; CCRF-CEM leukemia; OVCAR-4 ovarian; MDA-N; OVCAR-5 ovarian; CAKI-1 renal; U251 CNS; HOP-62 NSCLC; M14 melanoma; HOP-92 NSCLC; TK-10 renal; MDA-MB-435; COLO 205 colon; UACC-257 melanoma; RPMI-8226 leukemia; T-47D breast; BT-549 breast; IGROV1 ovarian; NCI-H522 lung.
Holding throughout (experiment): NCI tumour cell line growth inhibition, 48 h

Take `C[C@@H]1C(=O)O[C@H]1[C@H](O)CO`: the TGI in the test on MOLT-4 leukemia, in the test with CCRF-CEM leukemia, in the test with OVCAR-4 ovarian, in the test on MDA-N, in the test with OVCAR-5 ovarian and in the test with CAKI-1 renal was more than 100 µM each time. For the same molecule, the TGI with U251 CNS, in the test with HOP-62 NSCLC, in the test with M14 melanoma, in the test on HOP-92 NSCLC, in the test on TK-10 renal and in the test on MDA-MB-435 was more than 100 µM in each case. The TGI in the test on COLO 205 colon, in the test with UACC-257 melanoma, in the test on RPMI-8226 leukemia, with T-47D breast and in the test with BT-549 breast was more than 100 µM in each case.
In the case of `CON(C)C(=O)[C@H]1C[C@@]1(C)CO`, the TGI in the test with IGROV1 ovarian, in the test with MOLT-4 leukemia, in the test with CCRF-CEM leukemia, with OVCAR-4 ovarian, in the test on MDA-N and in the test with OVCAR-5 ovarian was more than 100 µM in each case. Moreover, the TGI in the test with CAKI-1 renal, in the test on U251 CNS, in the test on HOP-62 NSCLC, in the test on M14 melanoma, in the test with HOP-92 NSCLC and in the test with TK-10 renal was more than 100 µM in each case. For the same molecule, the TGI with MDA-MB-435, with COLO 205 colon, in the test on UACC-257 melanoma, in the test with T-47D breast and with BT-549 breast was more than 100 µM in each case.
With `CCc1n[nH]c(=O)n1/N=C(\C)c1ccc([N+](=O)[O-])cc1`, the TGI in the test with IGROV1 ovarian, with MOLT-4 leukemia, with CCRF-CEM leukemia, in the test with OVCAR-4 ovarian, in the test with MDA-N and in the test on OVCAR-5 ovarian was more than 100 µM throughout. Moreover, the TGI in the test on CAKI-1 renal, with U251 CNS, in the test on HOP-62 NSCLC, with M14 melanoma, with HOP-92 NSCLC and in the test on TK-10 renal was more than 100 µM each time. In addition, the TGI in the test on MDA-MB-435, with COLO 205 colon, with UACC-257 melanoma, in the test on RPMI-8226 leukemia, in the test on T-47D breast and in the test with BT-549 breast was more than 100 µM throughout.
As to `Cc1ccc(Cc2nn(C)c(=O)n2N)cc1`, the TGI in the test on IGROV1 ovarian, in the test with OVCAR-4 ovarian, in the test with MDA-N, with OVCAR-5 ovarian, in the test on CAKI-1 renal and in the test on U251 CNS was more than 100 µM in each case. In addition, the TGI with M14 melanoma, with HOP-92 NSCLC, in the test with TK-10 renal, in the test with MDA-MB-435, with COLO 205 colon and with UACC-257 melanoma was more than 100 µM each time. In addition, the TGI in the test on RPMI-8226 leukemia, in the test with T-47D breast and in the test with BT-549 breast was more than 100 µM in each case.
As for `COc1ccc2c(C)c(Oc3c(Cl)c(Cl)c(O)c(C#N)c3C#N)oc2c1`, the TGI in the test with IGROV1 ovarian, in the test with MOLT-4 leukemia, in the test with CCRF-CEM leukemia, with OVCAR-4 ovarian, in the test on MDA-N and with OVCAR-5 ovarian was more than 100 µM each time. Also, the TGI in the test with CAKI-1 renal, in the test with U251 CNS, in the test on HOP-62 NSCLC, with M14 melanoma, in the test on TK-10 renal and in the test with NCI-H522 lung was more than 100 µM throughout. Moreover, the TGI with MDA-MB-435, in the test with COLO 205 colon, in the test on UACC-257 melanoma, in the test on RPMI-8226 leukemia, in the test with T-47D breast and in the test on BT-549 breast was more than 100 µM throughout.
As for `CC(=O)Nc1ccc(C(=O)NN2C(=O)CSC2c2ccc(O)cc2)cc1` (stereo not drawn), the TGI in the test with IGROV1 ovarian, in the test with MOLT-4 leukemia, in the test with CCRF-CEM leukemia, with OVCAR-4 ovarian, in the test with MDA-N and in the test with OVCAR-5 ovarian was more than 100 µM in each case. Moreover, the TGI with U251 CNS, with HOP-62 NSCLC, in the test on M14 melanoma, in the test with HOP-92 NSCLC, in the test with TK-10 renal and in the test with MDA-MB-435 was more than 100 µM each time. Also, the TGI in the test on COLO 205 colon, with UACC-257 melanoma, in the test with RPMI-8226 leukemia, with T-47D breast and in the test with BT-549 breast was more than 100 µM throughout.
For the molecule `CCCCN1C(=O)c2c(Br)sc(Br)c2C1=O`, the TGI is more than 100 µM in the test on IGROV1 ovarian; 70.6 µM in the test with MOLT-4 leukemia; more than 100 µM in the test on CCRF-CEM leukemia; 91.1 µM with OVCAR-4 ovarian; more than 100 µM in the test with MDA-N; more than 100 µM in the test on OVCAR-5 ovarian. The TGI in the test on CAKI-1 renal, in the test on U251 CNS, in the test with HOP-62 NSCLC, in the test on M14 melanoma, in the test on TK-10 renal and with NCI-H522 lung was more than 100 µM in each case. Moreover, the TGI with MDA-MB-435 was more than 100 µM; in the test with COLO 205 colon, 39.1 µM; with UACC-257 melanoma it was more than 100 µM; with RPMI-8226 leukemia, more than 100 µM; in the test with T-47D breast, more than 100 µM; in the test with BT-549 breast it was more than 100 µM.
For `CC(C)(C)c1ccc2c(c1)C#Cc1cc(C(C)(C)C)ccc1OCCCO2`, the TGI in the test with IGROV1 ovarian, with MOLT-4 leukemia, with CCRF-CEM leukemia, in the test on OVCAR-4 ovarian, in the test on MDA-N and in the test on OVCAR-5 ovarian was more than 100 µM throughout. Moreover, the TGI in the test on CAKI-1 renal, in the test with U251 CNS, in the test on HOP-62 NSCLC, with M14 melanoma, in the test on TK-10 renal and in the test with NCI-H522 lung was more than 100 µM throughout. For the same molecule, the TGI in the test with MDA-MB-435, in the test on COLO 205 colon, with UACC-257 melanoma, in the test on RPMI-8226 leukemia, with T-47D breast and in the test with BT-549 breast was more than 100 µM in each case.
